Reference: patent US20230167101A1, “NOVEL INHIBITORS OF HISTONE […] P300/CBP FOR CANCER THERAPY” (BAYLOR COLLEGE OF MEDICINE, priority 2020, published 2023)
Entries after “also recorded” stand apart in the source; their conditions may differ.

Legend:
human CBP HAT = target: T1, human CBP HAT (Homo sapiens, UniProt Q92793); test: CBP HAT inhibition assay; assay type: biochemical; details: read-out: IC50 against CBP HAT
T1 construct: made in house
From the text: (§1) Humans have three classes of histone/protein lysine acetyltransferases with distinct conserved motifs and structures, including p300/CBP, Gcn5-related N-acetyltransferase (GNAT) and MYST (MOZ, Ybf2, Sas2 and Tip60) family of HATs. […] CBP is a homolog of p300. […] PCAF (p300/CBP associating factor) is a member of the GNAT family, while Myst3 belongs to the MYST family of HATs.
The HAT domain (1195-1673) of human p300 was cloned, inserted into pGEX-KG vector and the DNA sequence was verified by sequencing. The p300-HAT expression plasmid was transformed into E. coli BL21-CodonPlus strain (Agilent) and cultured at 37° C. in LB medium containing ampicillin (50 µg/mL) and chloramphenicol (34 µg/mL). After the optical density of the bacterial culture reached ~0.9 at 600 nm, p300 HAT expression was induced by adding 300 µM isopropylthiogalactoside (IPTG) at 18° C. for 48 hours. Cells were collected, lysed, centrifuged for 20 min at 20,000 rpm. The supernatant was subjected to column chromatography with glutathione sepharose resins. […]
To determine inhibitory activity, a compound with concentrations ranging from 100 nM to 10 µM was incubated with p300-HAT (10 nM) in 20 µL of 50 mM phosphate buffer (pH = 7.0) containing 0.01% Brij-35 for 10 min at 25° C. […] Radioactivity on the filter paper was measured with a Beckman LS-6500 scintillation counter. […]

PCAF = target: T2, PCAF (Homo sapiens, UniProt Q92831); test: PCAF HAT inhibition assay; assay type: biochemical
T2 construct: made in house
From the text: as §1
The HAT domain (1195-1673) of human p300 was cloned, inserted into pGEX-KG vector and the DNA sequence was verified by sequencing. The p300-HAT expression plasmid was transformed into E. coli BL21-CodonPlus strain (Agilent) and cultured at 37° C. in LB medium containing ampicillin (50 µg/mL) and chloramphenicol (34 µg/mL). After the optical density of the bacterial culture reached ~0.9 at 600 nm, p300 HAT expression was induced by adding 300 µM isopropylthiogalactoside (IPTG) at 18° C. for 48 hours. Cells were collected, lysed, centrifuged for 20 min at 20,000 rpm. The supernatant was subjected to column chromatography with glutathione sepharose resins. The recombinant GST-p300-HAT fusion protein was obtained in ~90% purity (SDS-PAGE) by elution with 10 mM of glutathione solution, which was further purified using a Superdex 200 gel filtration column chromatography. CBP, PCAF and Myst3 HATs were obtained using similar methods.
To determine inhibitory activity, a compound with concentrations ranging from 100 nM to 10 µM was incubated with p300-HAT (10 nM) in 20 µL of 50 mM phosphate buffer (pH = 7.0) containing 0.01% Brij-35 for 10 min at 25° C. Histone H3 peptide (1-21) (20 µM) and Acetyl-CoA (1 µM ^3H—Ac—CoA and 19 µM Ac—CoA) were added to initiate the reaction. After 30 min at 25° C., the reaction was stopped by adding 6 N formic acid (5 µL). 20 µL of reaction mixture was then transferred to a small piece of P81 filter paper (Whatman) that binds histone H3 peptide. The filter paper was washed 3x with 50 mM NaHCO3, dried, and transferred into a scintillation vial containing 2 mL of scintillation cocktail. Radioactivity on the filter paper was measured with a Beckman LS-6500 scintillation counter. […]

Myst3 = target: T3, Myst3 (Homo sapiens, UniProt Q92794); test: Myst3 HAT inhibition assay; assay type: biochemical
T3 construct: made in house

Kasumi-1 leukemia cells = test: Cellular histone acetylation, Western blot; assay type: cell-based; details: Kasumi-1 cells, 12 h, 5 and 10 µM
Experimental: Kasumi-1 leukemia cells were treated with increasing concentrations of these compounds for 12 h. Histone was extracted and subjected to electrophoresis separation and Western blot staining to determine levels of acetylation at various lysine residues. […] H3K27 seems to be the most sensitive cellular substrate of p300 HAT. […] This might be due to different mode of inhibition or cell permeability for the two compounds.
About 10^6 Kasumi-1 cells per well were incubated with compound 11 at 0, 5 and 10 µM for 12 hours. Histone proteins were extracted using EpiQuik total histone extraction kit (Epigentek), according to the manufacturer’s protocol. Equal amounts of histones (2 µg) were separated on SDS-PAGE and transferred to PVDF membranes. The blots were probed with primary antibodies against H3K9Ac, H3K18Ac, H3K27Ac and H3 (Cell Signaling), followed by anti-rabbit IgG (Thermo Scientific) secondary antibodies.

MCF-7 (Tam-R) = test: Cell growth inhibition, tamoxifen-resistant MCF-7; assay type: cell-based; details: read-out: EC50, antiproliferative activity
Experimental: (§2) The anti-proliferation assays for non-breast cancer cells were done using a previously developed assay. In brief, for Kasumi-1 cells, […] were added into 96-well plates and cultured with increasing concentrations of a compound in RPMI-1640 medium supplemented with 20% fetal bovine serum and penicillin (100 U/mL) and streptomycin (100 µg/mL) at 37° C. in a 5% CO2 atmosphere with 100% humidity. For solid tumor cells, 10^5 cells per well were added into 96-well plates and cultured in Dulbecco’s Modified Eagle’s Medium (DMEM) supplemented with 10% fetal bovine serum and penicillin (100 U/mL) and streptomycin (100 µg/mL) overnight. Upon addition of increasing concentrations of a compound, cells were incubated for 5 days. Cell viability was assessed by using an XTT assay kit (Roche) for leukemia cells or an MTT assay (Sigma) for attachment cells. For the breast cancer MCF-7 cells, culture and inhibition assays were performed according to our previous methods in Ref. 25 and 26. Compound EC50 values were calculated from dose response curves using Prism 5.0.

MDA-PANC-28 = test: Cell growth inhibition, MDA-PANC-28 (MTT); assay type: cell-based; details: MDA-PANC-28, 5 days; read-out: EC50, antiproliferative activity
Experimental: as §2

Kasumi-1 = test: Cell growth inhibition, Kasumi-1 (XTT); assay type: cell-based; details: Kasumi-1, 5 days; read-out: EC50, antiproliferative activity
Experimental: as §2

T2 sequence (Q92831 whole entry): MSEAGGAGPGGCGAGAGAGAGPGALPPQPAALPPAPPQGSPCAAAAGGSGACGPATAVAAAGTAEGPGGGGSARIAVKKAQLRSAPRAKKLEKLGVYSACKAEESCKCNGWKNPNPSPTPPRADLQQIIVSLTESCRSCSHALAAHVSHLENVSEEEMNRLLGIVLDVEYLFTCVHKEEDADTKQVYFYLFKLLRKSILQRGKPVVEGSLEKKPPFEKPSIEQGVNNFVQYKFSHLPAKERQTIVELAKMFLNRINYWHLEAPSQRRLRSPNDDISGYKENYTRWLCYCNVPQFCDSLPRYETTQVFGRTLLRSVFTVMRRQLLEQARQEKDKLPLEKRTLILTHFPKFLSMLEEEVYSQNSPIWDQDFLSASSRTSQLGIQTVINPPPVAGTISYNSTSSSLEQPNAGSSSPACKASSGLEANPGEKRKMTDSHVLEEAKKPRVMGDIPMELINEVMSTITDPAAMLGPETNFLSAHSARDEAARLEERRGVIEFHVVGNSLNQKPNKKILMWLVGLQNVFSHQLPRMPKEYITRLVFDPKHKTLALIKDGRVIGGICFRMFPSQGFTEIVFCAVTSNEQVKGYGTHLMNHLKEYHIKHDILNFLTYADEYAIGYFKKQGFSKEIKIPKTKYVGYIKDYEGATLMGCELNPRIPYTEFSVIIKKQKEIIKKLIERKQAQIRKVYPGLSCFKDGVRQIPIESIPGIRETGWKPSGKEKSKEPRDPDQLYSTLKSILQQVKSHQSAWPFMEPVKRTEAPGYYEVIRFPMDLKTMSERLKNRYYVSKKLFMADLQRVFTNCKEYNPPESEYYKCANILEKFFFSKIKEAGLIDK
T3 sequence (Q92794 whole entry): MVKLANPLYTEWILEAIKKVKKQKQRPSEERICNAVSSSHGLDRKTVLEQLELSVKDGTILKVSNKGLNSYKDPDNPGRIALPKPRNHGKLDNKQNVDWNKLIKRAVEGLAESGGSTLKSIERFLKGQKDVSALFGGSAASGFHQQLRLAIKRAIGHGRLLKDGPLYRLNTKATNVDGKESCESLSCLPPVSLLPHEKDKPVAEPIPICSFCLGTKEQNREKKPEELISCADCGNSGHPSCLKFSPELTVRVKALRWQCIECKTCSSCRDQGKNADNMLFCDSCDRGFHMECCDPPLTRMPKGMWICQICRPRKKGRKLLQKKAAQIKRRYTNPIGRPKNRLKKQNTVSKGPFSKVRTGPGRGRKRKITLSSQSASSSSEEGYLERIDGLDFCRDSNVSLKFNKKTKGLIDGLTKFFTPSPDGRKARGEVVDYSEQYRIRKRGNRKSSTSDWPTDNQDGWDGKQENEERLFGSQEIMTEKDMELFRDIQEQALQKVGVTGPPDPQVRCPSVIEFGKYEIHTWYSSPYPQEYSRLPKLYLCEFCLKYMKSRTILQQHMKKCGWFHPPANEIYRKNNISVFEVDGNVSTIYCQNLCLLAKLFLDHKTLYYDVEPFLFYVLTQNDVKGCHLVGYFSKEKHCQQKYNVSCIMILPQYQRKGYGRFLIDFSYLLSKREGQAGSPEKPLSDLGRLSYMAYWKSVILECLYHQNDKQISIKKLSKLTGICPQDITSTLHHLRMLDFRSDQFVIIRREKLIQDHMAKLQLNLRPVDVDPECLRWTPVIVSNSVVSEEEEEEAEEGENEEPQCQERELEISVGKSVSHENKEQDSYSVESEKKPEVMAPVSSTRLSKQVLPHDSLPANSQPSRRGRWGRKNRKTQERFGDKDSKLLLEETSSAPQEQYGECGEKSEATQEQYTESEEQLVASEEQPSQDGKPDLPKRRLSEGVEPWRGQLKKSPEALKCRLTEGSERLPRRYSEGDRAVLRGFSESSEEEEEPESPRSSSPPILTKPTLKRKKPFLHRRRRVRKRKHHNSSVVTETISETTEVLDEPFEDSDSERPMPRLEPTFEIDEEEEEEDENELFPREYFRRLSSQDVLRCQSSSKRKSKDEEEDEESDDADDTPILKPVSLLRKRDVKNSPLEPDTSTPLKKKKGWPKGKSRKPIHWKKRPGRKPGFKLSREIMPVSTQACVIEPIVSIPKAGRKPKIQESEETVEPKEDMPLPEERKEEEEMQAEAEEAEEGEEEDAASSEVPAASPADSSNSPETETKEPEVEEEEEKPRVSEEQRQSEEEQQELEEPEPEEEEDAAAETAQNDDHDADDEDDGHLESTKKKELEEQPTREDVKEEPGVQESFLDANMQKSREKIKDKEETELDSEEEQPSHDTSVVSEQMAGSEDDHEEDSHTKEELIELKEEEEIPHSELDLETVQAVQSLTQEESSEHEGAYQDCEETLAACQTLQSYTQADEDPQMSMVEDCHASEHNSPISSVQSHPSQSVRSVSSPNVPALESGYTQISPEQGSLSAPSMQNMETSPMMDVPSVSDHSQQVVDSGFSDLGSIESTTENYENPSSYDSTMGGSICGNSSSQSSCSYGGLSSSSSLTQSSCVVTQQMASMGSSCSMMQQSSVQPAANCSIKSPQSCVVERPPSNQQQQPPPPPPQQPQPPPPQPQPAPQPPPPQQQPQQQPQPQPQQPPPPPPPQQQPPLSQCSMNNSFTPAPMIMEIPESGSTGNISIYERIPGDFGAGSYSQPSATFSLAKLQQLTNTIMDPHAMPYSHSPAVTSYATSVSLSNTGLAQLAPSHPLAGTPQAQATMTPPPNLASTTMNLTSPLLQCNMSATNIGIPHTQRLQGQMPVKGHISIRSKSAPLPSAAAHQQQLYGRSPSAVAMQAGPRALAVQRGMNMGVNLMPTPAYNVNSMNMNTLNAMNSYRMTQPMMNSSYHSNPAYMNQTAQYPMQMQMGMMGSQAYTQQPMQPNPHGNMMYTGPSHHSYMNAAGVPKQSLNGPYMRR
T1 sequence (Q92793 1323-1700 limits assumed): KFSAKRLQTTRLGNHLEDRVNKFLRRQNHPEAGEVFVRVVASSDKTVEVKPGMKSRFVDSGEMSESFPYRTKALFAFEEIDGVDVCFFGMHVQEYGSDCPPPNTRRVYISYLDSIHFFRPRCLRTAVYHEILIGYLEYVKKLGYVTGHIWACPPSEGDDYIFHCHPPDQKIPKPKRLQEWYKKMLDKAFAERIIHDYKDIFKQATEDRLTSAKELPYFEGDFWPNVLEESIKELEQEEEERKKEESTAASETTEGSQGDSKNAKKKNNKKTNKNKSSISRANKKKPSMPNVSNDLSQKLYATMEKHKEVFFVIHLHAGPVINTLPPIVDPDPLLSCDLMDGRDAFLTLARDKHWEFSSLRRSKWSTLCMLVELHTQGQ

## CC(C)(C)c1ccc(-c2cc(CNCC3CCNCC3)sc2-c2ccc(C(C)(C)C)cc2)cc1 [Compound 12]
Human CBP HAT
  IC50: 1.2 µM
PCAF; at 20 µM
  inhibition of PCAF: < 10%
  inhibition of PCAF activity (in words): did not significantly inhibit
PCAF; read-out: IC50 against PCAF
  IC50: > 20 µM
Myst3; at 20 µM
  inhibition of Myst3: < 10%
  inhibition of Myst3 activity (in words): did not significantly inhibit
Myst3; read-out: IC50 against Myst3
  IC50: > 20 µM
Kasumi-1 leukemia cells
  cellular acetylation of histone H3K9, H3K18 and H3K27: significantly inhibit; also recorded: inhibited
MCF-7 (Tam-R)
  EC50: 3.4 µM
MDA-PANC-28
  EC50: 2.8 µM
Kasumi-1
  EC50: 2.6 µM
